Results on 17 compounds are retold here after patent publication US10316017B2, “COT modulators and methods of use thereof” (Gilead Sciences, Inc., priority 2015, dated 2019).

Experiment [1] concerns TNFα production in LPS-stimulated human monocytes. Kind of experiment: Cot Monocyte TNFα Cell Based Assay. Particulars: read-out: EC50 TNF. Put shortly: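 TNFα release quantified by two-antibody TR-FRET, normalised to unstimulated (0%) and LPS-stimulated (100%) wells. Cells got a 1 h compound exposure at 37° C in 0.5% DMSO before 4 h challenge with 50 pg/ml LPS, at 5,000 cells/well.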

For experiment [2], the target named is T1, human Cot catalytic domain (30-397 amino acids) (Homo sapiens, UniProt P41279).
T1 construct: Purified recombinant human Cot catalytic domain (30-397 amino acids) was purchased from Cama Biosciences; purchased Cama Biosciences (so in the source)
Kind of experiment: High Throughput Cot Biochemical Assay (KinEASE TR-FRET). Particulars: read-out: IC50 HTRF. A digest of the protocol:
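TR-FRET (KinEASE) read-out: Eu-labelled phospho-specific antibody binds XL665-tagged STK3 peptide (1 μM) phosphorylated by 5 nM human Cot kinase domain (residues 30-397). Reaction at 400 μM ATP, pH 7.0 MOPS buffer with 10 mM MgOAc, 1 mM DTT and 0.1% DMSO.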

Where [3] appears, read: Homo sapiens, Monocyte, TNFα in LPS-stimulated human monocytes.
Where [4] appears, read: Cot KinEASE TR-FRET (HTRF) biochemical assay, 400 μM ATP.
[5] abbreviates: Homo sapiens, Monocyte, LPS-stimulated human monocytes, TNFα TR-FRET.
The mark [6] stands for this setting: Cot KinEASE TR-FRET, 400 μM ATP.
[7] abbreviates: Cot biochemical HTRF (KinEASE TR-FRET) assay.

Where two headings read alike, the source gives them in different places. Some results are limits rather than exact numbers.

T1 sequence (P41279 30-397): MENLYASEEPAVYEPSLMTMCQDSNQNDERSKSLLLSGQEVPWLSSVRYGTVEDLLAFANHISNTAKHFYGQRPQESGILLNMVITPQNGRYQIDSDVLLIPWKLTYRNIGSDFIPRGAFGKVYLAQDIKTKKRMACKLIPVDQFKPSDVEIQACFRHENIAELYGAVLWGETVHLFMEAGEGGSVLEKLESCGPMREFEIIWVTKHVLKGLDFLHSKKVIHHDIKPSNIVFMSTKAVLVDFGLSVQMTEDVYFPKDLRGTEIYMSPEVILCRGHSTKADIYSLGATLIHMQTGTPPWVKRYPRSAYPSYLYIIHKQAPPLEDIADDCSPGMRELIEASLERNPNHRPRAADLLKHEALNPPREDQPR

Consider `[2H]C(Nc1cc(F)c2ncc(C#N)c(NC(CC#N)c3ccccc3)c2c1)(c1ccc(F)cc1)c1cn(C2CC2)nn1` (stereo in doubt) [Example 286, 4-((2-cyano-1-phenylethyl)amino)-6-(((1-cyclopropyl-1H-1,2,3-triazol-4-yl)(4-fluorophenyl)methyl-d)amino)-8-fluoroquinoline-3-carbonitrile], for which the 50% effective concentration (EC50) in experiment [1] (setting [3]) is 0.127 µM. Further, the IC50 in experiment [2] (setting [4]) came to 0.007 µM.
On the same counts, the results for `[2H][C@](Nc1cc(Cl)c2ncc(C#N)c(N[C@H](CC)c3ccccc3)c2c1)(c1cccc(C#N)c1)c1cn(C2CC2)nn1` [Example 340, 8-chloro-6-(((S)-(3-cyanophenyl)(1-cyclopropyl-1H-1,2,3-triazol-4-yl)methyl-d)amino)-4-(((R)-1-phenylpropyl)amino)quinoline-3-carbonitrile] are 0.057 µM and 0.002 µM.
On the same counts, the results for `N#Cc1cnc2c(Cl)cc(N[C@@H](c3ccc(F)cc3)c3cn(C4CC4)nn3)cc2c1NCc1cncs1` [Example 346, (S)-8-chloro-6-(((1-cyclopropyl-1H-1,2,3-triazol-4-yl)(4-fluorophenyl)methyl)amino)-4-((thiazol-5-ylmethyl)amino)quinoline-3-carbonitrile] are 6.1 µM and 0.338 µM.
Regarding `CC[C@@H](Nc1c(C#N)cnc2c(C#N)cc(N[C@@H](c3cccc(C(N)=O)c3)c3cn(C4CC4)nn3)cc12)c1ccccc1` [Example 942, 3-((S)-(1-cyclopropyl-1H-1,2,3-triazol-4-yl) ((3,8-dicyano-4-(((R)-1-phenylpropyl)amino)quinolin-6-yl)amino)methyl)benzamide], the EC50 in experiment [1] (setting [5]) stood at 0.141 µM. Also, the IC50 in experiment [2] (setting [6]) came out at 0.001 µM.
In the case of `CC(C)(C)N1CCC(n2cc([C@@H](Nc3cc(Cl)c4ncc(C#N)c(NC5CCCC(O)C5)c4c3)c3ccc(F)cc3)nn2)CC1` (stereo partly drawn) [Example 441, 6-(((S)-(1-(1-(tert-butyl)piperidin-4-yl)-1H-1,2,3-triazol-4-yl)(4-fluorophenyl)methyl)amino)-8-chloro-4-((3-hydroxycyclohexyl)amino) quinoline-3-carbonitrile], in experiment [1] (TNFα in LPS-stimulated human monocytes), the EC50 was 5.82 µM. In addition, in experiment [2] (setting [7]), the IC50 is 0.804 µM.
For the compound `N#Cc1cnc2c(Cl)cc(N[C@@H](c3ccc(F)cc3)c3cn(C4COC4)nn3)cc2c1Nc1cnc(F)c(F)c1` [Example 511, (S)-8-chloro-4-((5,6-difluoropyridin-3-yl)amino)-6-(((4-fluorophenyl)(1-(oxetan-3-yl)-1H-1,2,3-triazol-4-yl)methyl)amino)quinoline-3-carbonitrile], the EC50 in experiment [1] (setting [3]) was 0.701 µM. Also, in experiment [2] (setting [7]), the IC50 was 0.017 µM.
Consider `CC[C@@H](C)Nc1c(C#N)cnc2c(Cl)cc(N[C@@H](c3ccccc3)c3cn(C(C)C)nn3)cc12` [Example 589, 4-(((R)-sec-butyl)amino)-8-chloro-6-(((S)-(1-isopropyl-1H-1,2,3-triazol-4-yl)(phenyl)methyl)amino)quinoline-3-carbonitrile], for which, in experiment [1] (setting [3]), the EC50 worked out at 8.44 µM. Also, the IC50 in experiment [2] (setting [7]) is 0.48 µM.
For the compound `N#Cc1cnc2c(Cl)cc(N[C@@H](c3ccc(F)cc3)c3cn(C4CC4)nn3)cc2c1N[C@H](CCF)c1ccccc1` [Compound 32], the EC50 in experiment [1] (setting [3]) was determined as 0.078 µM. Also, in experiment [2] (setting [4]), the IC50 was 0.005 µM.
With `N#Cc1cnc2c(Cl)cc(NC(c3ccc(F)cc3)c3cscn3)cc2c1Nc1ccc(F)c(Cl)c1` (stereo not shown) [Example 806, 8-chloro-4-((3-chloro-4-fluorophenyl)amino)-6-(((4-fluorophenyl)(thiazol-4-yl)methyl)amino)quinoline-3-carbonitrile], in experiment [1] (setting [3]), the EC50 was more than 50 µM. Also, in experiment [2] (setting [7]), the IC50 is 0.85 µM.
As to `N#Cc1cnc2c(Cl)cc(N[C@@H](c3ccccc3)c3cn(C4CC4)nn3)cc2c1N[C@@H](c1ccccc1)C(F)(F)CO` [Example 986, 8-chloro-6-(((S)-(1-cyclopropyl-1H-1,2,3-triazol-4-yl)(phenyl)methyl)amino)-4-(((S)-2,2-difluoro-3-hydroxy-1-phenylpropyl)amino)quinoline-3-carbonitrile], the concentration giving a half-maximal response (EC50) in experiment [1] (setting [5]) is 0.222 µM. For the same compound, the IC50 in experiment [2] (setting [6]) is 0.013 µM.
In the case of `CC(C)(C)N1CCC(n2cc([C@@H](Nc3cc(Cl)c4ncc(C#N)c(Nc5ccc(F)c(Cl)c5)c4c3)c3cccc(CN4CCOCC4)c3)nn2)CC1` [Example 733, (S)-6-(((1-(1-(tert-butyl)piperidin-4-yl)-1H-1,2,3-triazol-4-yl)(3-(morpholinomethyl)phenyl)methyl)amino)-8-chloro-4-((3-chloro-4-fluorophenyl)amino)quinoline-3-carbonitrile], the half-maximal effective concentration (EC50) in experiment [1] (setting [3]) stood at 0.884 µM. The IC50 in experiment [2] (setting [7]) turned out to be 0.006 µM.
Taken in the same sequence, the figures for `CC(C)(C)N1CCC(n2cc([C@@H](Nc3cc(Cl)c4ncc(C#N)c(NCC5CC5)c4c3)c3ccc(Cl)cc3)nn2)CC1` [Example 698, (S)-6-(((1-(1-(tert-butyl)piperidin-4-yl)-1H-1,2,3-triazol-4-yl)(4-chlorophenyl)methyl)amino)-8-chloro-4-((cyclopropylmethyl)amino) quinoline-3-carbonitrile] were 16.1 µM and 0.317 µM.
Taken in the same sequence, the figures for `CC(C)(C)N1CCC(n2cc([C@@H](Nc3cc(Cl)c4ncc(C#N)c(NCc5cccc(F)c5F)c4c3)c3ccccc3)nn2)CC1` [Example 617, (S)-6-(((1-(1-(tert-butyl)piperidin-4-yl)-1H-1,2,3-triazol-4-yl)(phenyl)methyl)amino)-8-chloro-4-((2,3-difluorobenzyl)amino)quinoline-3-carbonitrile] were 12.3 µM and 0.043 µM.
On the same counts, the results for `N#Cc1cccc([C@H](Nc2cc(Cl)c3ncc(C#N)c(Nc4ccc(Cl)c(Cl)c4F)c3c2)c2c[nH]nn2)c1` [Example 465, (S)-8-chloro-6-(((3-cyanophenyl)(1H-1,2,3-triazol-4-yl)methyl)amino)-4-((3,4-dichloro-2-fluorophenyl)amino) quinoline-3-carbonitrile] are 0.821 µM and 0.041 µM.
With `CC(C)(C)CNc1c(C#N)cnc2c(-c3cncnc3)cc(N[C@H](c3cn(C4(C)CC4)nn3)c3ccccc3Cl)cc12` [Example 1037, (S)-6-(((2-chlorophenyl)(1-(1-methylcyclopropyl)-1H-1,2,3-triazol-4-yl)methyl)amino)-4-(neopentylamino)-8-(pyrimidin-5-yl)quinoline-3-carbonitrile], the EC50 in experiment [1] (setting [5]) is not below 1 µM. Besides, the IC50 in experiment [2] (setting [6]) came to 0.102 µM.
On to `CC(C)[C@@H](Nc1c(C#N)cnc2c(Cl)cc(N[C@@H](c3ccccc3)c3cn(C4CCN(C(C)(C)C)CC4)nn3)cc12)c1ccccc1` [Example 553, 6-(((S)-(1-(1-(tert-butyl)piperidin-4-yl)-1H-1,2,3-triazol-4-yl)(phenyl)methyl)amino)-8-chloro-4-(((R)-2-methyl-1-phenylpropyl)amino)quinoline-3-carbonitrile], for which the half-maximal effective concentration (EC50) in experiment [1] (setting [3]) turned out to be 0.423 µM. The IC50 in experiment [2] (setting [7]) came out at 0.01 µM.
On the same counts, the results for `Cc1cccc(CNc2c(C#N)cnc3c(Cl)cc(N[C@@H](c4ccc(Cl)cc4)c4cn(C5CCN(C(C)(C)C)CC5)nn4)cc23)c1` [Example 679, (S)-6-(((1-(1-(tert-butyl)piperidin-4-yl)-1H-1,2,3-triazol-4-yl)(4-chlorophenyl)methyl)amino)-8-chloro-4-((3-methylbenzyl)amino)quinoline-3-carbonitrile] are 12.5 µM and 0.355 µM.

One may read the EC50 as the concentration needed to bring the measured effect to its halfway point. Broadly, the IC50 is the midpoint of a concentration-inhibition curve.
